Experimental data from patent publication US7858796B2, “Chemical compounds” (Glaxo Group Limited, priority 2004, dated 2010).

Test system: human monocyte stimulated cytokine production (TNF-α)
Assay: Monocyte Assay (LPS-stimulated TNF-α production)
Type: cell-based
Conditions: human CD14+ monocytes, 200 ng/mL LPS, 24 hrs, TNF-α by ELISA
Method: Effect of IKK-β inhibition on human monocyte stimulated cytokine production was assessed as follows: Monocytes were isolated from heparinized whole blood by Ficoll gradient, followed by purification of CD14+ cells using MACS magnetic cell separation beads. Isolated monocytes were then adhered to 96-well culture plates at 1×10^6 cells/mL in RPMI 1640 10% FBS (JRH Biosciences, Lenexa Kans.) for 2 h. to further enrich the monocyte population. The media was then removed, cells washed once with RPMI 1640, and 0.125 mL RPMI 1640 10% FBS was added to the wells. Test compounds are added to the wells 30 minutes prior to stimulation with a final vehicle concentration of 0.1% DMSO. Monocytes were activated by the addition of 200 ng/mL endotoxin (LPS; E. coli serotype 026:B6) (Sigma, St. Louis, Mo.) and incubated for 24 hrs at 37 C. Cell-free supernates were analyzed by ELISA for TNF-α using Pharmingen matched pair Abs. Viability of the cells was determined by10% trypan blue exclusion.

SMILES | IC50 [µM]
NC(=O)c1cc(-c2ccsc2)cc2c(C3CCN(S(=O)(=O)CCCN4CCOCC4)CC3)c[nH]c12 [Example 74, 3-(1-{[3-(4-morpholinyl)propyl]sulfonyl}-4-piperidinyl)-5-(3-thienyl)-1H-indole-7-carboxamide] | < 10
NC(=O)c1cc(-c2ccc(F)cc2)cc2c(C3CCN(S(=O)(=O)CCCN4CCCC4)CC3)c[nH]c12 [Example 75, 5-(4-fluorophenyl)-3-(1-{[3-(1-pyrrolidinyl)propyl]sulfonyl}-4-piperidinyl)-1H-indole-7-carboxamide] | < 10
CN(C)CCCS(=O)(=O)N1CCC(c2c[nH]c3c(C(N)=O)cc(-c4cccc(CO)c4)cc23)CC1 [Example 76, 3-(1-{[3-(dimethylamino)propyl]sulfonyl}-4-piperidinyl)-5-[3-(hydroxymethyl)phenyl]-1H-indole-7-carboxamide] | < 10
NC(=O)c1cc(-c2cccc(CO)c2)cc2c(C3CCN(S(=O)(=O)CCCN4CCCC4)CC3)c[nH]c12 [Example 83, 5-[3-(hydroxymethyl)phenyl]-3-(1-{[3-(1-pyrrolidinyl)propyl]sulfonyl}-4-piperidinyl)-1H-indole-7-carboxamide] | < 10
CCNCc1cccc(-c2cc(C(N)=O)c3[nH]cc(C4CCN(S(=O)(=O)CCCN(C)C)CC4)c3c2)c1 [Example 96, 3-(1-{[3-(dimethylamino)propyl]sulfonyl}-4-piperidinyl)-5-{3-[(ethylamino)methyl]phenyl}-1H-indole-7-carboxamide] | < 10
CC(C)(C)OC(=O)N1CCC(NCCCS(=O)(=O)N2CCC(c3c[nH]c4c(C(N)=O)cc(-c5ccccc5)cc34)CC2)CC1 [Example 108, 1,1-dimethylethyl 4-{[3-({4-[7-(aminocarbonyl)-5-phenyl-1H-indol-3-yl]-1-piperidinyl}sulfonyl)propyl]amino}-1-piperidinecarboxylate] | < 10
NC(=O)c1cc(-c2ccccc2)cc2c(C3CCN(S(=O)(=O)CCCNC4CCNCC4)CC3)c[nH]c12 [Example 109, 5-phenyl-3-(1-{[3-(4-piperidinylamino)propyl]sulfonyl}-4-piperidinyl)-11 indole-7-carboxamide] | < 10
COCCCS(=O)(=O)N1CCC(c2c[nH]c3c(C(N)=O)cc(-c4ccccc4)cc23)CC1 [Example 160, 3-(1-{[3-(methyloxy)propyl]sulfonyl}-4-piperidinyl)-5-phenyl-1H-indole-7-carboxamide] | < 10
NC(=O)c1cc(-c2ccccc2)cc2c(C3CCN(S(=O)(=O)CCCOCC4CC4)CC3)c[nH]c12 [Example 164, 3-[1-({3-[(cyclopropylmethyl)oxy]propyl}sulfonyl)-4-piperidinyl]-5-phenyl-1H-indole-7-carboxamide] | < 10
CC(O)C(C)OCCCS(=O)(=O)N1CCC(c2c[nH]c3c(C(N)=O)cc(-c4ccccc4)cc23)CC1 (centres unmarked) [Example 165, 3-[1-({3-[(2-hydroxy-1-methylpropyl)oxy]propyl}sulfonyl)-4-piperidinyl]-5-phenyl-1H-indole-7-carboxamide] | < 10
NC(=O)c1cc(-c2ccccc2)cc2c(C3CCN(S(=O)(=O)CCCO)CC3)c[nH]c12 [Example 174, 3-{1-[(3-hydroxypropyl)sulfonyl]-4-piperidinyl}-5-phenyl-1H-indole-7-carboxamide] | < 10
CCOCCS(=O)(=O)N1CCC(c2c[nH]c3c(C(N)=O)cc(-c4ccccc4)cc23)CC1 [Example 175, 3-(1-{[2-(ethyloxy)ethyl]sulfonyl}-4-piperidinyl)-5-phenyl-1H-indole-7-carboxamide] | < 10
CCOCCCS(=O)(=O)N1CCC(c2c[nH]c3c(C(N)=O)cc(-c4ccccc4)cc23)CC1 [Example 176, 3-(1-{[3-(ethyloxy)propyl]sulfonyl}-4-piperidinyl)-5-phenyl-1H-indole-7-carboxamide] | < 10
NC(=O)c1cc(-c2ccccc2)cc2c(C3CCN(S(=O)(=O)CCOCCN4CCCCC4)CC3)c[nH]c12 [Example 178, 5-phenyl-3-{1-[(2-{[2-(1-piperidinyl)ethyl]oxy}ethyl)sulfonyl]-4-piperidinyl}-1H-indole-7-carboxamide] | < 10
CC(C)NCc1cccc(-c2cc(C(N)=O)c3[nH]cc(C4CCN(S(=O)(=O)CCCN(C)C)CC4)c3c2)c1 [Example 214, 3-(1-{[3-(dimethylamino)propyl]sulfonyl}-4-piperidinyl)-5-(3-{[(1-methylethyl)amino]methyl}phenyl)-1H-indole-7-carboxamide] | < 10
CONCCS(=O)(=O)N1CCC(c2c[nH]c3c(C(N)=O)cc(-c4ccccc4)cc23)CC1 [Example 215, 3-[1-({2-[(methyloxy)amino]ethyl}sulfonyl)-4-piperidinyl]-5-phenyl-1H-indole-7-carboxamide] | < 10

SMILES | IC50 [µM]
CONCCCS(=O)(=O)N1CCC(c2c[nH]c3c(C(N)=O)cc(-c4ccccc4)cc23)CC1 [Example 219, 3-[1-({3-[(methyloxy)amino]propyl}sulfonyl)-4-piperidinyl]-5-phenyl-1H-indole-7-carboxamide] | < 10
CNCc1cccc(-c2cc(C(N)=O)c3[nH]cc(C4CCN(S(=O)(=O)CCCOC)CC4)c3c2)c1 [Example 223, 5-{3-[(methylamino)methyl]phenyl}-3-(1-{[3-(methyloxy)propyl]sulfonyl}-4-piperidinyl)-1H-indole-7-carboxamide] | < 10
COCCCS(=O)(=O)N1CCC(c2c[nH]c3c(C(N)=O)cc(-c4cccs4)cc23)CC1 [Example 262, 3-(1-{[3-(methyloxy)propyl]sulfonyl}-4-piperidinyl)-5-(2-thienyl)-1H-indole-7-carboxamide] | < 10
CCOCCCS(=O)(=O)N1CCC(c2c[nH]c3c(C(N)=O)cc(-c4ccsc4)cc23)CC1 [Example 263, 3-(1-{[3-(ethyloxy)propyl]sulfonyl}-4-piperidinyl)-5-(3-thienyl)-1H-indole-7-carboxamide] | < 10
CCOCCCS(=O)(=O)N1CCC(c2c[nH]c3c(C(N)=O)cc(-c4cccs4)cc23)CC1 [Example 264, 3-(1-{[3-(ethyloxy)propyl]sulfonyl}-4-piperidinyl)-5-(2-thienyl)-1H-indole-7-carboxamide] | < 10
NC(=O)c1cc(-c2cccs2)cc2c(C3CCN(S(=O)(=O)CCCO)CC3)c[nH]c12 [Example 265, 3-{1-[(3-hydroxypropyl)sulfonyl]-4-piperidinyl}-5-(2-thienyl)-1H-indole-7-carboxamide] | < 10
Cn1cnc(S(=O)(=O)N2CCC(c3c[nH]c4c(C(N)=O)cc(-c5ccccc5)cc34)CC2)c1 [Example 267, 3-{1-[(1-methyl-1H-imidazol-4-yl)sulfonyl]-4-piperidinyl}-5-phenyl-1H-indole-7-carboxamide] | < 10
NC(=O)c1cc(-c2ccccc2)cc2c(C3CCN(S(=O)(=O)c4cccs4)CC3)c[nH]c12 [Example 268, 5-phenyl-3-[1-(2-thienylsulfonyl)-4-piperidinyl]-1H-indole-7-carboxamide] | < 10
NC(=O)c1cc(-c2ccccc2)cc2c(C3CCN(S(=O)(=O)c4ccc(CNCc5ccccc5)s4)CC3)c[nH]c12 [Example 271, 5-phenyl-3-{1-[(5-{[(phenylmethyl)amino]methyl}-2-thienyl)sulfonyl]-4-piperidinyl}-1H-indole-7-carboxamide] | < 10
CC(=O)Nc1nc(C)c(S(=O)(=O)N2CCC(c3c[nH]c4c(C(N)=O)cc(-c5ccccc5)cc34)CC2)s1 [Example 272, 3-(1-{[2-(acetylamino)-4-methyl-1,3-thiazol-5-yl]sulfonyl}-4-piperidinyl)-5-phenyl-1H-indole-7-carboxamide] | < 10
Cc1nn(C)c(Cl)c1S(=O)(=O)N1CCC(c2c[nH]c3c(C(N)=O)cc(-c4ccccc4)cc23)CC1 [Example 273, 3-{1-[(5-chloro-1,3-dimethyl-1H-pyrazol-4-yl)sulfonyl]-4-piperidinyl}-5-phenyl-1H-indole-7-carboxamide] | < 10
NC(=O)c1cc(-c2ccccc2)cc2c(C3CCN(S(=O)(=O)c4ccc5nonc5c4Cl)CC3)c[nH]c12 [Example 274, 3-{1-[(4-chloro-2,1,3-benzoxadiazol-5-yl)sulfonyl]-4-piperidinyl}-5-phenyl-1H-indole-7-carboxamide] | < 10
Cc1nc(S(=O)(=O)N2CCC(c3c[nH]c4c(C(N)=O)cc(-c5ccccc5)cc34)CC2)cn1C [Example 275, 3-{1-[(1,2-dimethyl-1H-imidazol-4-yl)sulfonyl]-4-piperidinyl}-5-phenyl-1H-indole-7-carboxamide] | < 10
Cc1nn(C)c(C)c1S(=O)(=O)N1CCC(c2c[nH]c3c(C(N)=O)cc(-c4ccccc4)cc23)CC1 [Example 276, 5-phenyl-3-{1-[(1,3,5-trimethyl-1H-pyrazol-4-yl)sulfonyl]-4-piperidinyl}-1H-indole-7-carboxamide] | < 10
Cc1noc(C)c1S(=O)(=O)N1CCC(c2c[nH]c3c(C(N)=O)cc(-c4ccccc4)cc23)CC1 [Example 277, 3-{1-[(3,5-dimethyl-4-isoxazolyl)sulfonyl]-4-piperidinyl}-5-phenyl-1H-indole-7-carboxamide] | < 10
Cc1nc(C)c(S(=O)(=O)N2CCC(c3c[nH]c4c(C(N)=O)cc(-c5ccccc5)cc34)CC2)s1 [Example 278, 3-{1-[(2,4-dimethyl-1,3-thiazol-5-yl)sulfonyl]-4-piperidinyl}-5-phenyl-1H-indole-7-carboxamide] | < 10
